Where two headings read alike, the source gives them in different places.
Assays:
[1] = tested on: MX1 human xenograft breast cancer model; test: MX1 in vivo xenograft cancer model; design: species or system athymic nude mice
Experimental: Female athymic nude mice from Charles River weighing 22 to 26 grams were implanted subcutaneously in the flank with 1×10^7 cells in a 1:1 (v/v) mixture in matrigel. […] Tumor volumes and body weight were determined by electronic caliper every 2 to 3 days. Repeat measures analysis was utilized with log transformed data and the auto-regression (AR) method to determine the overall p-value for galunisertib growth curves relative to the vehicle control in both tumor models. […]

[2] = clinical; cited from earlier work
Braf = target: T1, Braf (Homo sapiens, UniProt P15056); test: KINOMEscan kinase competition binding assay (DiscoverX); settings: absence of ATP, three-point titration
T1 construct: purchased DiscoverX
Description: (§1) Data are presented as Geomean ± SD.

TGFβR2 = target: T2, TGFβR2 (Homo sapiens, UniProt P37173); test: as above; settings: absence of ATP, three-point titration
T2 construct: purchased DiscoverX
Description: as §1

CSNK1E1 = target: T3, CSNK1E1 (Homo sapiens, UniProt P49674); test: as above; settings: absence of ATP, three-point titration
T3 construct: purchased DiscoverX
Description: as §1

TNIK = target: T4, TNIK (Homo sapiens, UniProt Q9UKE5); test: as above; settings: absence of ATP, three-point titration
T4 construct: purchased DiscoverX
Description: as §1

U87MG glioblastoma cells = test: U87MG in vitro cell migration assay; assay type: cell-based, human
Experimental: U87MG cells were cultured in minimum essential medium (MEM) supplemented with 10% fetal bovine serum (FBS). Eight micron migration plates (24 well) were coated with denatured collagen I (BD, cat# 354326) at 10 μg/ml. Following overnight incubation at 4°C, the lower chambers were washed three times with phosphate buffered saline (PBS) followed by blocking with 1% bovine serum albumin (BSA) for 1 hour. The chambers were washed 3 times in PBS then 200 μl of migration buffer [MEM containing 5% blocking solution (Sigma, cat# 2393), […]] was added. […] After 1 hour of culture, 10 ng/ml of recombinant human (rh) TGFβ1 was added to upper chambers and cells were allowed to migrate in a 37°C incubator for 48 hours. The non-migrated cells were aspirated and wiped off the upper chamber with a cotton swab. The inserts were washed 3 times with PBS and the chambers transferred to new […]. The chambers were fixed with 500 μl of 10% neutral buffered formalin (NBF) for 20 minutes followed by three washes with PBS. The cells were stained with Hoechst at 1:10,000 for 20 minutes in the dark then washed three times with PBS. The membranes were cut with a scalpel, placed on a slide and the pictures were taken using Eclipse 90i Microscope. Image Pro-Analyzer 7.0 was used for analysis of migrated cells.

[3] = tested on: 4T1 syngenic murine breast cancer model; test: 4T1 in vivo syngenic breast cancer model; design: species or system BALB/c mice
Experimental: Female BALB/c mice from Taconic Farms weighing 20 to 24 grams were acclimated for 1 week prior to study initiation, had ad libitum access to food and were shaved in the implant area prior to the orthotopic injection of 1 × 10^5 4T1 cells into the mammary fat pad in a volume of 20 μL media. Ten animals per group were utilized for tumor measurement and survival endpoints. […] Tumor volumes were determined by electronic caliper every 2 to 3 days. Statistical analysis was performed by repeated measures analysis and Kaplan-Meier analysis.

pSMAD in NIH3T3 cells = test: pSMAD inhibition in NIH3T3 cells; assay type: cell-based; settings: Mus musculus, read-out: IC50, inhibition of pSMAD, data not shown
pSMAD in EMT6-LM2 cells = test: TGFβ1-induced pSMAD inhibition in EMT6-LM2 cells (ELISA)
Experimental: Next, the samples were homogenized for 15 seconds using Bioruptor® UCD-200 by Diagenode at medium power.
Total and pSMAD2/3 levels were assessed independently on two separate ELISA plates. […] To the pSMAD ELISA plate, 100 μL per well of lysate (ranging from 0.04-0.1 mg total protein) was added to the appropriate wells. To the total SMAD ELISA plate, 10% of the total protein that was added to the pSMAD, was added to the appropriate wells (0.004-0.01 mg protein final). A standard curve was also added to both ELISA plates (p- and tSMAD plates) using recombinant HIS-pSMAD2 protein (Eli Lilly and Company). Plates were incubated overnight then washed four times with wash buffer. […] Following one hour of incubation, plates were washed and developed using 3, 3’, 5, 5’-tetramethylbenzidine substrate (TMB; Surmodics/BioFX #TMBW-0100-01) and absorbance (OD) was read at 450 nm on a plate reader.
Percent inhibition of normalized pSMAD2 levels was calculated by first determining the ratio of tSMAD to pSMAD values for the vehicle group. […]

pSMAD in Mv1Lu cells = test: Endogenous pSMAD inhibition in TGFβ1 stimulated Mv1Lu cells; assay type: cell-based, mink; settings: data not shown
[4] = tested on: pSMAD in Calu6 and EMT6-LM2 tumors; test: PK/PD profile from Calu6 and EMT6-LM2 in vivo target inhibition studies (statements not split by model); design: species or system mice
KPC-M09 cells = test: E-Cadherin assay / TGFβ1-mediated EMT in KPC-M09 cells; assay type: cell-based, mouse; settings: 30 ng/ml TGFβ plus 2 μM or 10 μM, 48 hours
Description: The primary mouse pancreatic ductal adenocarcinoma (PDAC) cell line KPC-M09 was derived from a pancreatic GEMM [KrasLSL-G12D/+; Trp53LSL-R172H/+; Ptf1aCre/+ (KPC)]. […] Cell morphological changes were imaged at 20X (bright field). Cells were stained with an anti-E-cadherin primary Ab (Cell Signaling, clone 24E10, diluted 1:200) followed with a secondary anti-rabbit Cy3 (Cell Signaling, diluted 1:500). DAPI was used as a counter stain and cells were imaged at 40X.

[5] = tested on: human NK and CD8+ T cells; test: TGFβ1 suppression of human NK and CD8+ T cell cytokine secretion; assay type: cell-based; settings: TGFβ1 10 ng/ml, ELISA
Experimental: Blood from healthy donors were obtained from the New York Blood Center. After isolation of PBMCs via high density gradient centrifugation with Ficoll-Paque, NK cells and CD8^+ T cells were purified from PBMCs by magnetic antibody sorting (Miltenyi Biotec) following the manufacturer's instructions. Purified CD8^+ T cells and NK cells were re-suspended separately in complete media (RPMI1640, 5% FBS, 10mM HEPES, 1×NEAA, 1×L-glu, sodium pyruvate, 1×penn/strep, 0.055 mM βME, 50 U/ml IL-2) and plated in 96-well plates at 37°C for 2 days at a density of 5 × 10^4/well, in triplicates. CD8^+ T cells were stimulated with human T cell activation/expansion beads (Miltenyi Biotec; 130-091-441), while NK cells were stimulated with the same beads plus 10 U/ml IL-2. Cells were cultured with or without TGFβ1 at 10 ng/ml. […] Cytokine release in supernatants was measured by ELISA (R&D; human Granzyme B: DY2906; human INFγ: DY285-05). One-way ANOVA with Dunnett's test was used to compare the TGFβ+Gal treatments to the TGFβ+DMSO treatment.

[6] = 75 mg/kg twice daily, data not shown

T2 sequence (P37173 23-567): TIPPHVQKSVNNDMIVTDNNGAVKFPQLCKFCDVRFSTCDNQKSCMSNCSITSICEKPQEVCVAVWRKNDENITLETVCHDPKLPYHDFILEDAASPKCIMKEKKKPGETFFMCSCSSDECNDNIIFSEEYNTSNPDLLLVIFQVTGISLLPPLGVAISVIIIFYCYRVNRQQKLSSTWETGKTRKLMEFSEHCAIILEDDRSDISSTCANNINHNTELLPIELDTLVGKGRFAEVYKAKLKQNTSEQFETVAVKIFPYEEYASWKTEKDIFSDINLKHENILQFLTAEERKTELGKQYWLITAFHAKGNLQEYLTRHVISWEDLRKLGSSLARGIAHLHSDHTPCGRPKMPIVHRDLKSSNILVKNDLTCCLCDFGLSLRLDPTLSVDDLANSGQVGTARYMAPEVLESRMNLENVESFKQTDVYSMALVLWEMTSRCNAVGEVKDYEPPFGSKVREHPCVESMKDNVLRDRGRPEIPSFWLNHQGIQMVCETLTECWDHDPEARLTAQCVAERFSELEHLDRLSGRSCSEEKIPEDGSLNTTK
T4 sequence (Q9UKE5 whole entry): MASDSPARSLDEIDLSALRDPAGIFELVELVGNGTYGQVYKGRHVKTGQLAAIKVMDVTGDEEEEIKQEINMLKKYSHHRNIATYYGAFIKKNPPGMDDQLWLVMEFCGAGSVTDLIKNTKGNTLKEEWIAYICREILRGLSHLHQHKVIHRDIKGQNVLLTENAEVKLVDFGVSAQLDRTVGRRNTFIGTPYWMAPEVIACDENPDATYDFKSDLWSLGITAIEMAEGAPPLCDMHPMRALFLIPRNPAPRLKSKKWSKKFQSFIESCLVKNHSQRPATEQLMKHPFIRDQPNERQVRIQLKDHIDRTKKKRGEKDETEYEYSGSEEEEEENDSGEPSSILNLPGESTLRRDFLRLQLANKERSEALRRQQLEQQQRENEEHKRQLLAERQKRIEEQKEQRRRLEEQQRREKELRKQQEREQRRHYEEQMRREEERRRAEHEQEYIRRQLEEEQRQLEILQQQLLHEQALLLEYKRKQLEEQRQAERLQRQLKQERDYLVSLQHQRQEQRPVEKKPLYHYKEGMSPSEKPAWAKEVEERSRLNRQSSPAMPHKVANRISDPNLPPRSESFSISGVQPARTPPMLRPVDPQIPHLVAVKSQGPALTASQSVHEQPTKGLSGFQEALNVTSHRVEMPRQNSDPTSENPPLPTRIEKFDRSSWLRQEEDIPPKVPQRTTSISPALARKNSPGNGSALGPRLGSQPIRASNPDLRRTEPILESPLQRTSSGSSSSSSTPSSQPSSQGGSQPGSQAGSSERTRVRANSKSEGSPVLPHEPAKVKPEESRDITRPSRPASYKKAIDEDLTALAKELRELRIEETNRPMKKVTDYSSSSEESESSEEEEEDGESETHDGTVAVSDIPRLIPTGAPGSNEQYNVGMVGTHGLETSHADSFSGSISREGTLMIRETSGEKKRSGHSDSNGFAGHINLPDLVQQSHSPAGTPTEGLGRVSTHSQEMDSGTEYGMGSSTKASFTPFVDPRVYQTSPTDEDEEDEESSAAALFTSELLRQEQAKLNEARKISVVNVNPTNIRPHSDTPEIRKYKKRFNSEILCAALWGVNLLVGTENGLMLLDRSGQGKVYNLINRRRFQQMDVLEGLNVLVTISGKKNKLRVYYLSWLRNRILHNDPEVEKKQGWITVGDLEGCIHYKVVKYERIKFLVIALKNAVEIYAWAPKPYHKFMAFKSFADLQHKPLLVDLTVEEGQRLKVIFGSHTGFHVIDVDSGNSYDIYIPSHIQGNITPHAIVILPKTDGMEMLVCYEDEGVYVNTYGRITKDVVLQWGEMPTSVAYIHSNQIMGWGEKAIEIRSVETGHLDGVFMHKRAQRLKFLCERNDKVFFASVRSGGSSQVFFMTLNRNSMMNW
T1 sequence (P15056 whole entry): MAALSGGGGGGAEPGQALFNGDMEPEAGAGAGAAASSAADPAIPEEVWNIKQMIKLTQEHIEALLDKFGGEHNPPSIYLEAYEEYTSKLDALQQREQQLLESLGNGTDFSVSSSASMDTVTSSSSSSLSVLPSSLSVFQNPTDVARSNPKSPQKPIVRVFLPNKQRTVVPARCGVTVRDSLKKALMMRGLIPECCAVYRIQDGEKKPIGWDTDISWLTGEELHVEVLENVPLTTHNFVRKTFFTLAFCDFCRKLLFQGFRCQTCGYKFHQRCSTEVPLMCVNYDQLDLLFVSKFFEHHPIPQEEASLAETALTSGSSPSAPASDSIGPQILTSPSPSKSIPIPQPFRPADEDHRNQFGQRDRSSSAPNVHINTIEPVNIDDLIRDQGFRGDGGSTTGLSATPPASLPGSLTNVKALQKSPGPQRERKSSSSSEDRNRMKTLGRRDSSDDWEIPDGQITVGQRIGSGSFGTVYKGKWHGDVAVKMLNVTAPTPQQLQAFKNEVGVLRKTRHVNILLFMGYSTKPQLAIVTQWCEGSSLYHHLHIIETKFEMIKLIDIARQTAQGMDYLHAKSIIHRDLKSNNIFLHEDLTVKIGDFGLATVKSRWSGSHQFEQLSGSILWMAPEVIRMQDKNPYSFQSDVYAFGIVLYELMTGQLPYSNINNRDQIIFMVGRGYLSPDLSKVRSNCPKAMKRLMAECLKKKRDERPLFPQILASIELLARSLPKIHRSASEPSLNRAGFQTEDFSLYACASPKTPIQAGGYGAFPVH
T3 sequence (P49674 whole entry): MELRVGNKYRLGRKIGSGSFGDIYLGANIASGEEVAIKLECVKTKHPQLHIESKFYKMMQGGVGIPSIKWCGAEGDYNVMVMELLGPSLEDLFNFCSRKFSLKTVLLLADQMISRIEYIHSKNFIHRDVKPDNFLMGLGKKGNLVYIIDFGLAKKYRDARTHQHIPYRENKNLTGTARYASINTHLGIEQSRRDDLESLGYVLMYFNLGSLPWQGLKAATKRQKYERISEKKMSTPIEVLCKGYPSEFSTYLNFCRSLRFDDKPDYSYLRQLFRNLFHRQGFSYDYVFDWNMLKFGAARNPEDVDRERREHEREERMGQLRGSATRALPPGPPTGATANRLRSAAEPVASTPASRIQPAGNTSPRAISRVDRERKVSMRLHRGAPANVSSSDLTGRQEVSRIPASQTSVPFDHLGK
Experimental for pSMAD in EMT6-LM2 tumors: For in vivo measurement of tumor cell pSMAD activity, tumors were harvested from mice at the indicated time points post-treatment, snap frozen in liquid nitrogen, then pulverized in lysis buffer [EDTA 5 mM, EGTA 5 mM, sodium pyrophosphate 30 mM, sodium chloride 6.7 mM, sodium fluoride 50 mM, and 1% triton in water, pH 7.4 with protease and phosphatase inhibitors (Sigma, p8340, p5726, p0044) and sodium orthovanadate 2.5 mM]. Protein concentration was estimated with DC protein assay kit (BioRad).
Percent inhibition of normalized pSMAD2 levels was calculated by first determining the ratio of tSMAD to pSMAD values for the vehicle group. […] Percent inhibition for compound treated groups was determined relative to the minimum pSMAD inhibition of the vehicle group using the formula: [(100- (normalized pSMAD in the experimental treatment group/normalized pSMAD in the vehicle treated group)]. IC50 of pSMAD inhibition was calculated for the data using non-linear regression to fit the standard four parameter logistic model using GraphPad Prism 6.
Female athymic nu/nu mice or immune competent syngenic BALB/c mice (Charles River or Taconic Farms, respectively, 22 to 28 grams) were maintained in microisolator cages, received food and water ad libitum, and were quarantined for 1 week before experimental manipulation. Sub-confluent Calu6 human non-small cell lung cancer (NSCLC) cells were injected subcutaneously in the flank of nude mice (1x 10^7cells/per animal) in 0.2 mL of culture medium mixed with Matrigel (BD Biosciences, 1:1 v/v). EMT6-LM2 murine triple negative breast cancer tumor cells (5 × 10^5 cells/per animal in the absence of matrigel) were implanted on the flank of BALB/c mice. EMT6-LM2 cells were generated from parental EMT6 cells which were passaged twice from spontaneous lung metastases (LM) following subcutaneous growth. When the tumor volume reached ~250 mm^3, mice were randomized and separated into treatment groups.
Tumors and plasma were collected 2 hours post dosage for analysis of pSMAD and compound levels.
Tumors and plasma were collected at the indicated time points (0.5, 1, 1.5, 2, 4, 8, and 16 hours) for analysis of pSMAD and compound levels.
Percent target inhibition was calculated as described above then was modeled as a function of either dose or plasma concentration.

What does the source list for Cc1cccc(-c2nn3c(c2-c2ccnc4ccc(C(N)=O)cc24)CCC3)n1.O [galunisertib, 4-[2-(6-methylpyridin-2-yl)-5,6-dihydro-4H-pyrrolo[1,2-b]pyrazol-3-yl]quinoline-6-carboxamide monohydrate]?
tumor growth delay ([1]; 75 mg/kg twice daily oral gavage, 1500 mm^3 crossing time, p = 0.014): 10.3 ± 4.3 days; body weight [1, 6]: No body weight loss; tolerability as oral cancer therapy [2]: well-tolerated; IC50 (Braf): 500 nM; IC50 (TGFβR2): 210 nM; IC50 (TGFβR2; listed as Galunisertib): 208 nM; IC50 (CSNK1E1): 400 nM; IC50 (TNIK): 510 nM; pSMAD inhibition at maximum plasma exposure (pSMAD in EMT6-LM2 tumors; EMT6-LM2, at 30 minutes): ~ 70%; TED50, total effective dose to inhibit 50% pSMAD (pSMAD in EMT6-LM2 tumors; EMT6-LM2, single oral dose, tumors 2 hours post dosage): 19.7 mg/kg; maximum plasma exposure (pSMAD in EMT6-LM2 tumors; EMT6-LM2 time course, single oral dose): up to 6 μM; TGFβ1-enhanced cell migration (U87MG glioblastoma cells; 1, 3, 10 μM, rhTGFβ1 10 ng/ml, 48 hours): blocked cell migration in a dose dependent manner; baseline migration in the absence of exogenous TGFβ1 (U87MG glioblastoma cells; galunisertib alone): reduced baseline migration; tumor growth delay ([3]; 75 mg/kg twice daily oral gavage, 500 mm^3 crossing time, p < 0.01): 13 ± 2.4 days; survival advantage ([3]; 75 mg/kg twice daily, Kaplan-Meier, p = 0.01): 4.5 days; body weight [3, 6]: No body weight loss; IC50 (pSMAD in NIH3T3 cells): 64 nM; IC50 (pSMAD in EMT6-LM2 cells; Mus musculus, read-out: IC50, pSMAD activity, EMT6-LM2, TGFβ1 10 ng/ml, ELISA): 894 nM; IC50 (pSMAD in EMT6-LM2 cells; read-out: IC50, pSMAD activity, EMT6-LM2, TGFβ1 10 ng/ml, ELISA): 890 nM; IC50 (pSMAD in Mv1Lu cells): 176 nM; TED90 ([4]; oral, data not shown): 75 mg/kg; target inhibition in vivo over 12 hours ([4]; single oral dose with an exposure of […]-5 μM): ≥ 20%; TGFβ1-mediated EMT (epithelial morphology, membrane E-cadherin) (KPC-M09 cells): prevented TGFβ1-mediated EMT; TGFβ1 suppression of IFNγ and granzyme B secretion [5]: prevented the suppression of IFNγ and granzyme B secretion
